Data from patent US11766422B2, “Galloylated procyanidins for treating endovascular dysfunction and increasing blood flow” (UNIVERSITY OF SOUTH FLORIDA, priority 2018, dated 2023).
Read-outs that look alike come from different tables or passages of the source.

Experiments:
[1] = tested on: RAW264.7 mouse cells; assay: Nitric Oxide Assay (DAF-FM fluorescence, confocal microscopy); assay type: cell-based
Protocol: Drug Preparation. […] The current formulation, L-arginine (COMPOUND SOLUTIONS) and L-citrulline DL-malate 2:1 (COMPOUND SOLUTIONS) were each prepared at 300 mg/ml in DMEM without phenol red (CORNING) and stored at −20° C. until use. Arginine silicate and lipopolysaccharides from E. coli 0111: B4 (LPS; SIGMA ALDRICH) were dissolved in DMSO to 300 mg/ml and 50 μg/ml, respectively, and stored frozen until use. 4,5-Diaminofluorescein Diacetate (DAF-FM) was diluted from 5 mM stocks in DMSO.
Cell Culture. […] All experiments were completed with cultures under 8 passages, and cell densities were maintained between 0.2×10^6 and 0.8×10^6 cells per ml during maintenance.
Cells were triturated with complete growth medium. Density was determined under phase-contrast using 0.2% Trypan blue. Three viable cell counts were performed on the hemocytometer and averaged.
Nitric Oxide Assay. […] DAF-FM diacetate is essentially non-fluorescent until it reacts with nitric oxide to form a fluorescent benzotriazole. DAF-FM diacetate is cell-permeant and passively diffuses across cellular membranes. Once inside cells, it is deacetylated by intracellular esterases to become DAF-FM.
Here, cells (50,000) in 3 ml of complete growth medium were plated onto 35-mm glass bottom dishes (MATTEK) pre-coated with poly-D-lysine. Cells were grown for 24 h and washed twice in HBS. Three (3) ml of serum-free medium was added. Cells were then treated with 1 μM lipopolysaccharide or various concentrations of test agents and grown for an additional 30 min. DAF-FM was added to cells to a final concentration of 2 μM and incubated for an additional 30 min.
For confocal microscopy, medium was removed, and cells were washed once in HBS and replaced with 3 ml Live Cell Imaging solution (INVITROGEN). […] For cell treatments resulting in little or no fluorescence, 4′,6-diamidino-2-phenylindole (DAPI, MOLECULAR PROBES) was added at a final concentration of 300 nM to an additional sample. Images were captured and analyzed as tiff formatted files. […] For determining fluorescence, the entire image was analyzed for each image taken.

[2] = tested on: heme oxygenase 1 in RAW264, 7 cells; conditions: galloyl-derivative compared to non-galloylated parent molecule; cited from earlier work
[3] = tested on: HUVEC; conditions: cited from earlier work
[4] = tested on: S-G cells (immortalized gum epithelial cells); conditions: cited from earlier work
[5] = molecular target: T1, pancreatic lipase (Homo sapiens, UniProt P16233); conditions: Control: Untreated enzyme; cited from earlier work
T1 sequence (P16233 17-465): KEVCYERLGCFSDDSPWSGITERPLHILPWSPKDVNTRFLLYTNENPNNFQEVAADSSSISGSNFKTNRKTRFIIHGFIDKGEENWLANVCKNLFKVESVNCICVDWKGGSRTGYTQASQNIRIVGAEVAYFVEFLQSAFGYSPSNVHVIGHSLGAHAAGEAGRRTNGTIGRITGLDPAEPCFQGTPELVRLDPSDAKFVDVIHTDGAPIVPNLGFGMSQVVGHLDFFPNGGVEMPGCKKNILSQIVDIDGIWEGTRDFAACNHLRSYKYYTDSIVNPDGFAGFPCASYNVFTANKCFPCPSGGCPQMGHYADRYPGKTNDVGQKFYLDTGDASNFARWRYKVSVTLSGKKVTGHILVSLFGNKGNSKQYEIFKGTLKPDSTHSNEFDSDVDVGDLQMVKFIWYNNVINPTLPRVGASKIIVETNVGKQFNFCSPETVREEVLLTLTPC

[6] = tested on: human umbilical vein endothelial cells (HUVEC); conditions: galloyl-derivative compared to non-galloylated parent molecule; cited from earlier work
[7] = tested on: HUVEC; conditions: Control: Untreated cells; cited from earlier work
[8] = tested on: NA+/K+ ATPase pump; conditions: Control: Untreated pump; cited from earlier work
[9] = tested on: NA/H exchanger; conditions: Control: Untreated exchanger; cited from earlier work
[10] = molecular target: type 1 ryanodine receptor (Homo sapiens, UniProt P21817); conditions: Control: Untreated receptor; cited from earlier work
[11] = molecular target: fatty acid synthase (Homo sapiens, UniProt P49327); conditions: Control: Untreated enzyme; cited from earlier work
Chain of fatty acid synthase (P49327 whole entry, species assumed): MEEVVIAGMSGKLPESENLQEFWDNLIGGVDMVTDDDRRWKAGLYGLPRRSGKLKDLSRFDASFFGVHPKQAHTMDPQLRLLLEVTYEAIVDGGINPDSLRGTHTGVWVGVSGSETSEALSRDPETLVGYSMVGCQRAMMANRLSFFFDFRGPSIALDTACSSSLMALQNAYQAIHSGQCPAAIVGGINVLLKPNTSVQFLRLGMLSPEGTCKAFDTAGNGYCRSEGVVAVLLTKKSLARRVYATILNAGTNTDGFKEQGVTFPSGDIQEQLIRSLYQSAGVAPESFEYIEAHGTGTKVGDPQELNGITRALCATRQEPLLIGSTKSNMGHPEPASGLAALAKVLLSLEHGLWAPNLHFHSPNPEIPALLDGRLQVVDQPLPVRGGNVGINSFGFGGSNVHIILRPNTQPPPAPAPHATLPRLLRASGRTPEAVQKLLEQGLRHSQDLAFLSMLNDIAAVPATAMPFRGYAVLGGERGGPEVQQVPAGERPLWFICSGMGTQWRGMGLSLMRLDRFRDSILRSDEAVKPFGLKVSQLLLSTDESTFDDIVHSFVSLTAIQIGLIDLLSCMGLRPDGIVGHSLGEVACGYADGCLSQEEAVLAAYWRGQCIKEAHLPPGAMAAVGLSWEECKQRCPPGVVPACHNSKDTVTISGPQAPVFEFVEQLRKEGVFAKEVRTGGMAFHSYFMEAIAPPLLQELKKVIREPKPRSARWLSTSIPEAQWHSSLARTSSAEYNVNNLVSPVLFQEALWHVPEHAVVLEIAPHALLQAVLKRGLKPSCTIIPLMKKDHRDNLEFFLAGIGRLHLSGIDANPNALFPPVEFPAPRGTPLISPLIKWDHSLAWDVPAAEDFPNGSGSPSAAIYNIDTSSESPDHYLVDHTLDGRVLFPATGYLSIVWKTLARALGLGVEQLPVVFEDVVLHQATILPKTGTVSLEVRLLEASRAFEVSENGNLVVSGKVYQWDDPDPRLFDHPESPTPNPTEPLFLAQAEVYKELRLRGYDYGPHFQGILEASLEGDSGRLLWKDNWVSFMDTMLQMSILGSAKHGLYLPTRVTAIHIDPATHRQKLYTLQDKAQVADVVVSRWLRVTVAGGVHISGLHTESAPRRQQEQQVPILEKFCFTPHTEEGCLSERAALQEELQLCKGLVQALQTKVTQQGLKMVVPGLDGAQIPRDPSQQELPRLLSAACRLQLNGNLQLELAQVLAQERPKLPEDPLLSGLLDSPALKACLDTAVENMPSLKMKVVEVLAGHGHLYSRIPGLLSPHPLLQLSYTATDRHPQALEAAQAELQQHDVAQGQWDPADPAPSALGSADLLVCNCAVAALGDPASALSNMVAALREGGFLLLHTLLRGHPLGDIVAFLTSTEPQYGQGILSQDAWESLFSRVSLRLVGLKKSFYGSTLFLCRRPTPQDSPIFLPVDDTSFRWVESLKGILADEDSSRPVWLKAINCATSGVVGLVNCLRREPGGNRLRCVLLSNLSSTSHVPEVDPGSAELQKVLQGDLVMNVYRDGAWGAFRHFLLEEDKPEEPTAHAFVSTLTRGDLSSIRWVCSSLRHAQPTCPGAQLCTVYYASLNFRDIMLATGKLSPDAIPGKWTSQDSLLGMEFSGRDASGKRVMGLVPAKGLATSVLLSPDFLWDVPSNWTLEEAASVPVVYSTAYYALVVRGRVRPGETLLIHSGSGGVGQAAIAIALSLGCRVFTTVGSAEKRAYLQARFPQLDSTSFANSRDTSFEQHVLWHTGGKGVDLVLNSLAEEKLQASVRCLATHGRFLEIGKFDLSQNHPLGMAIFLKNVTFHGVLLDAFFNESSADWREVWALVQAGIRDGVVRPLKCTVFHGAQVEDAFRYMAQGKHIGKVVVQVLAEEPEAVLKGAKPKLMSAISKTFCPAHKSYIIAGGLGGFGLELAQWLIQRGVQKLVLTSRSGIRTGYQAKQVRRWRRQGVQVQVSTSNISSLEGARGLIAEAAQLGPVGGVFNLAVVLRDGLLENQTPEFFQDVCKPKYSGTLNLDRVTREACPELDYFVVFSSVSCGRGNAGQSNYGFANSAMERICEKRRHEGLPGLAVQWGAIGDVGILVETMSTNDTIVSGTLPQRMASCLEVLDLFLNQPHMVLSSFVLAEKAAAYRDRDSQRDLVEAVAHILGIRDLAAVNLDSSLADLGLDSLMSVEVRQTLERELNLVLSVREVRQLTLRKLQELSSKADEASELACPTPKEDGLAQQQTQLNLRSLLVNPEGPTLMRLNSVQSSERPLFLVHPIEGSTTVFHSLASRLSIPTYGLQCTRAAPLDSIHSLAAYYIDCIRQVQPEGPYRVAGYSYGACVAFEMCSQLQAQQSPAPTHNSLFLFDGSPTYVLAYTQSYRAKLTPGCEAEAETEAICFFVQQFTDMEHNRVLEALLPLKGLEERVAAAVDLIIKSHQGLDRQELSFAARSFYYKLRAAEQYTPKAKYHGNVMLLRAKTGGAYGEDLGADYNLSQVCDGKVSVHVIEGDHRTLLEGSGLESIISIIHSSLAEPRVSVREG

[12] = molecular target: T2, rat liver microsomal 5α-reductase (Rattus norvegicus, UniProt P24008); conditions: cited from earlier work
T2 sequence (P24008 1-259): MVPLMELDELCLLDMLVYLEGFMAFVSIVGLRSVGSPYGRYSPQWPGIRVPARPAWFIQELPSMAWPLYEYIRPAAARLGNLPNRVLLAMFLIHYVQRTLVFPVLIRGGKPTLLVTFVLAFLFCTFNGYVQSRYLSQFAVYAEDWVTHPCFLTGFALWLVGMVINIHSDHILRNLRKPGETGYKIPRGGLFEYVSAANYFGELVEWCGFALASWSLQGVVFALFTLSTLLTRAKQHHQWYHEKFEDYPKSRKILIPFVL

[13] = tested on: fatty acid synthase expression, MCF-7 cells; conditions: Control: Untreated cells; cited from earlier work
[14] = Control: C, EC; cited from earlier work
[15] = tested on: HL-60 cells; conditions: Control: Untreated cells; cited from earlier work
[16] = tested on: HL-60 cells; conditions: Control: Untreated cells; cited from earlier work; remark: listed apart in the source
[17] = tested on: erythrocytes; conditions: Control: Untreated erythrocytes; cited from earlier work
[18] = tested on: MCF-7 and MDA-MB231 cells; conditions: Control: Untreated cells; cited from earlier work
[19] = tested on: K562 cells; conditions: cited from earlier work
[20] = tested on: LNCaP and DU145 cells; conditions: Control: Untreated cells; cited from earlier work

NC(=O)NCCC[C@H](N)C(=O)O.NC(=O)NCCC[C@H](N)C(=O)O.O=C(O)CC(O)C(=O)O (racemic) [L-citrulline-DL-malate 2:1, L-citrulline DL-malate 2:1]
mean fluorescence (DAF-FM) ([1]; RAW264.7 cells, 600 μg/ml samples): noticeably low mean fluorescence

O=C(Oc1c(-c2ccc(O)c(O)c2)oc2cc(O)cc(O)c2c1=O)c1cc(O)c(O)c(O)c1 [3GQ]
Effect: Induction of heme oxygenase 1 in RAW264, 7 cells [2]: ↓↓ | Effect: Cytotoxicity, inhibition of proliferation, migration and tube formation of HUVEC [3]: ↑↑

O=C(Oc1cc(O)c2c(c1)O[C@H](c1ccc(O)c(O)c1)[C@@H](O)C2=O)c1cc(O)c(O)c(O)c1 [7GT]
Effect: Induction of heme oxygenase 1 in RAW264, 7 cells [2]: ↑↑↑ | Effect: Cytotoxicity, inhibition of proliferation, migration and tube formation of HUVEC [3]: ↑↑

O=C(O[C@H]1Cc2c(O)cc(O)cc2O[C@@H]1c1ccc(O)c(O)c1)c1cc(O)c(O)c(O)c1 [CG]
Effect: Cytotoxicity towards S-G cells (immortalized gum epithelial cells) ([4]; Control: Untreated cells): ↑↑↑ | Effect: Reduction of pancreatic lipase activity in vitro [5]: ↑↑↑

Oc1cc(O)c2c(c1)O[C@H](c1ccc(O)c(O)c1)[C@H](O)C2 [EC, epicatechin]
Effect: Cytotoxicity towards S-G cells (immortalized gum epithelial cells) [4]: ↑

O=C(O[C@@H]1Cc2c(O)cc(O)cc2O[C@@H]1c1ccc(O)c(O)c1)c1cc(O)c(O)c(O)c1 [ECG, Epicatechin gallate]
Effect: Inhibition of VEGF-induced proliferation migration and tube formation of human umbilical vein endothelial cells (HUVEC) [6]: ↑^c | Effect: Inhibition of VEGF-induced proliferation of HUVEC [7]: ↑↑ | Effect: Inhibition of NA+/K+ ATPase pump activity [8]: ↑↑ | Effect: Cytotoxicity towards S-G cells (immortalized gum epithelial cells) ([4]; Control: Untreated cells): ↑↑↑ | Effect: Inhibition of NA/H exchanger activity [9]: ↑↑ | Effect: Reduction of pancreatic lipase activity in vitro [5]: ↑↑ | Effect: Activiation of type 1 ryanodine receptor [10]: ↑↑↑ | Effect: Inhibition of fatty acid synthase activity [11]: ↑↑↑

O=C(O[C@@H]1Cc2c(O)cc(O)cc2O[C@@H]1c1cc(O)c(O)c(O)c1)c1cc(O)c(O)c(O)c1 [EGCG, epigallocatechin gallate]
Effect: Inhibition of rat liver microsomal 5α-reductase ([12]; Control: Untreated enzyme): ↑ | Effect: Suppression of fatty acid synthase expression n MCF-7 cells [13]: ↑↑↑ | Effect: Inhibition of VEGF-induced proliferation of HUVEC [7]: ↑↑ | Effect: Inhibition of NA+/K+ ATPase pump activity [8]: ↑↑ | Effect: Trolox-equivalent antioxidant activity [14]: ↑↑ | Effect: Cytotoxicity towards S-G cells (immortalized gum epithelial cells) [4]: ↑↑↑ | Effect: Inhibition of NA/H exchanger activity [9]: ↑ | Effect: Reduction of pancreatic lipase activity in vitro [5]: ↑↑ | Effect: Cytotoxicity, inhibition of proliferation, migration and tube formation of HUVEC ([3]; galloyl-derivative compared to non-galloylated parent molecule): ↑↑^c | Effect: Reduction of cell viability in HL-60 cells [15]: ↑↑ | Effect: Activiation of type 1 ryanodine receptor [10]: ↑↑↑ | Effect: Inhibition of fatty acid synthase activity [11]: ↑↑↑

Oc1cc(O)c2c(c1)O[C@H](c1cc(O)c(O)c(O)c1)[C@H](O)C2 [EGC]
Effect: Suppression of fatty acid synthase expression n MCF-7 cells [13]: • | Effect: Inhibition of VEGF-induced proliferation of HUVEC [7]: ↑ | Effect: Inhibition of NA+/K+ ATPase pump activity [8]: ↑ | Effect: Cytotoxicity towards S-G cells (immortalized gum epithelial cells) ([4]; Control: Untreated cells): ↑↑ | Effect: Inhibition of NA/H exchanger activity [9]: ↑↑↑ | Effect: Activiation of type 1 ryanodine receptor [10]: ↑ | Effect: Inhibition of fatty acid synthase activity [11]: ↑

O=C(O)c1cc(O)c(O)c(O)c1 [GA, gallic acid]
Effect: Induction of apoptosis in HL-60 cells [16]: ↑↑ | Effect: Inhibition of fatty acid synthase activity [11]: ↑

O=C(O[C@@H]1Cc2c(O)cc(O)cc2O[C@H]1c1cc(O)c(O)c(O)c1)c1cc(O)c(O)c(O)c1 [GCG]
Effect: Reduction of pancreatic lipase activity in vitro [5]: ↑↑↑

N=C(N)NCCC[C@H](N)C(=O)O [L-arginine]
mean fluorescence (DAF-FM) [1]: noticeably low mean fluorescence

O=C(OC[C@H]1O[C@@H](OC(=O)c2cc(O)c(O)c(O)c2)[C@H](OC(=O)c2cc(O)c(O)c(O)c2)[C@@H](OC(=O)c2cc(O)c(O)c(O)c2)[C@@H]1OC(=O)c1cc(O)c(O)c(O)c1)c1cc(O)c(O)c(O)c1 [PGG]
Effect: Triggering of suicidal erythrocyte death [17]: ↑↑ | Effect: Inhibition of rat liver microsomal 5α-reductase [12]: ↑↑↑ | Effect: Growth inhibition of MCF-7 and MDA-MB231 cells [18]: ↑↑↑ | Effect: Cytotoxicity towards K562 cells [19]: ↑ | Effect: Inhibitory effects on LNCaP and DU145 cells [20]: ↑↑↑ | Effect: Reduction of cell viability in HL-60 cells [15]: ↑↑↑

catechin
Effect: Suppression of fatty acid synthase expression n MCF-7 cells [13]: • | Effect: Inhibition of fatty acid synthase activity [11]: •

lipopolysaccharides from E. coli 0111: B4 [LPS]
DAF-FM fluorescence (nitric oxide levels) ([1]; RAW264.7 cells, 1 ng/ml incubated for 30 minutes): bright and consistent DAF-FM fluorescence
